# Values quoted from earlier work, collected in patent publication US6811791B2, “Method and concentrated composition for insect and animal control” (priority 2001, dated 2004).
# Settings: classified by the EPA
structure (smiles),measurement,value
"CNC(=O)CSP(=S)(OC)OC [Dimethoate, dimethoate]",EPA carcinogen classification,group 3 carcinogen
